pIC50: −log10 of the molar value. Where two headings read alike, the source gives them in different places. Bridge positions count the residues as written; N and C are the ends. Peptide text beside a SMILES is read from it.
Assays:
[1] = target: T1, Kv1.3 (Mus musculus, UniProt P16390); assay: Whole-cell voltage-clamp of Kv currents in cultured stimulated microglia; type: cell-based; details: read-out: IC50 on microglial Kv current
T1 construct: pharmacological characterization of currents from cultured microglia stimulated for 48 hours with AbO or LPS; endogenous in cells; host or cells: primary microglia cultured from newborn C57Bl/6 mice, stimulated 48 h with AbO or LPS
Method: In order to determine if Kv1.3 is indeed functionally expressed in mouse microglia Applicants performed electrophysiological experiments on cultured mouse microglia in the whole-cell mode of the patch-clamp technique. Kv currents were elicited with 500 millisecond pulses from a holding-potential of −100 mV to +40 mV applied every 45 sec.
Microglia cultured from newborn C57B1/6 mice were treated with lipopolysaccharides (LPS) or AbO for 24 or 48 hrs. […] Kv currents were elicited by 500 ms voltage steps from −80 to 40 mV (representative traces on right).

[2] = rats; cited from earlier work
[3] = system: hippocampal slices; assay: Hippocampal slices: AbetaO-induced microglia activation and neuronal damage; type: cell-based, mouse; details: AβO 20 nM, PAP-1 1 μM
From the text: Three consecutive hippocampal slices were obtained from mouse brain and from mice received the same indicated treatment. One slice was used for CD11b staining (green) for activated microglia (slices outlined by Hoechst stain), one for propidium iodide (PI) uptake, and one for Fluoro-Jade C stain for neuronal damage. DG: dentate gyrus.

[4] = system: rat hippocampal slices (CA1 LTP); assay: CA1 LTP induction in rat hippocampal slices with AbO; type: cell-based; details: PAP-1 10 μM pretreatment 30 min prior to AbO 50 nM; 45 min after HFS
Method: FIG. 7 summarizes an experiment wherein, under control conditions, CA1 LTP was induced by high frequency stimulation (HFS), which consists of 4 trans of 100Hz basal intensity stimulation lasting for 1 s per train. In control (vehicle only) group, following the HFS, the amplitude or slope of fEPSP was increased to 209±28% of baseline at 45 min after HFS. The bath application of AbO (50 nM) for 10 min blocked the induction of LTP (126±6.7% of control). […] The mean of five consecutive measurements at the end of LTP induction (45 min) was normalized to the baseline (100%) which was the mean of five consecutive measurements just before the HFS.

[5] = rodents or primates; cited from earlier work
[6] = system: AβO-stimulated cultured microglia; assay: AbetaO-induced microglial neurotoxicity (cultured microglia); type: cell-based, mouse; details: co-treating AβO-stimulated cultured microglia; AβO 20 nM, PAP-1 1 μM
From the text: (§1) Measurements were made in the conditioned medium and normalized to the amount of total cellular protein in each culture. n=4-6, *p<0.001 compared with control, **p<0.001 compared with the “AβO” group. […] NO released by AβO-treated microglia is the major soluble mediator of AβO-induced microglial neurotoxicity.

[7] = system: cultured mouse microglia; assay: Abeta-induced activation of cultured mouse microglia (proliferation, morphology, NFkB, NO, TNF-alpha); type: cell-based
Method: FIGS. 1A and 1B show data regarding AβO-induced NFκ-B and NO, respectively.
Two (2) hours after administration of the indicated treatment, the mouse brains were sectioned and immunostained with an antibody for p65 of NFκB to mark cells with NFκB activation. Numbers of p65-positive cells per 200 DAPI-labeled cells were determined.
as §1

[8] = cited from earlier work
[9] = rhesus macaques; cited from earlier work
[10] = system: microglia; assay: Abeta uptake (phagocytosis) assay in microglia by flow cytometry; type: cell-based; details: 2 hrs pre-treatment
From the text: Using an Aβ uptake assay, Applicants pretreated microglia with either control (vehicle only), anti-SRA (scavenger receptor A) antibody, doxycycline or PAP-1. FIG. 2 is a bar graph showing cell-associated fluorescence as measured by flow cytometry after 2 hrs of such pre-treatment. (n=3, *p<0.01 and **p<0.001 compared with control).

T1 sequence (P16390 whole entry): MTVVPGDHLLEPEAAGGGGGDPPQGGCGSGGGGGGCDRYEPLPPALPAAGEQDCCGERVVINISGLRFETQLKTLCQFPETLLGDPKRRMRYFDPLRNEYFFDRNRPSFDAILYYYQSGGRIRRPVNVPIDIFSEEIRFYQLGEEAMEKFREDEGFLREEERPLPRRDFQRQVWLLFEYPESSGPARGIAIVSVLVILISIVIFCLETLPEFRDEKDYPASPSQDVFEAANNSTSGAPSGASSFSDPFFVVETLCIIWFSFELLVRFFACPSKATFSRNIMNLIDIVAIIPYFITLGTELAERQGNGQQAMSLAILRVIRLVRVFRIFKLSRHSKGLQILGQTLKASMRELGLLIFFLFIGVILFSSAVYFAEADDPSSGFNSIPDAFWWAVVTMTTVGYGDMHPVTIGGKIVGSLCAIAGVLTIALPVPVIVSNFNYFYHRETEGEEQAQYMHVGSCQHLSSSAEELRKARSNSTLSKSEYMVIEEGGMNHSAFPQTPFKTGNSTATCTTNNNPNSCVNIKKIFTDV

SMILES | pIC50 ([1]; cultured microglia stimulated for 48 hours with AbO) | pIC50 ([1]; cultured microglia stimulated for 48 hours with LPS) | half-life [2] [h] | AβO-induced microglia activation (CD11b staining) [3] | AβO-induced neuronal damage (propidium iodide uptake and Fluoro-Jade C staining) [3] | inhibition by AbO of the induction of CA1 LTP [4] | long-term toxicity [5] | AβO-induced microglial neurotoxicity [6] | signs of microglia activation induced by AβO (proliferation, morphological transformation, NFκ-B activation, NO production) ([7]; cultured mouse microglia, AβO 20 nM, PAP-1 1 μM) | increased microglia release of tumor necrosis factor-α, NFκ-B activation and NO production induced by fAβ stimulation ([7]; fAβ stimulation) | oral bioavailability ([8]; in vivo, po) | brain concentrations versus plasma concentrations (crosses the blood brain barrier) ([8]; pharmacokinetic studies) | half-life [9] [h] | Aβ cell-associated fluorescence (ability of microglia to phagocytose Aβ) [10]
CC[C@H](C)[C@H](NC(=O)[C@@H](N)[C@@H](C)O)C(=O)N[C@H](C(=O)N[C@@H](CC(N)=O)C(=O)N[C@H](C(=O)N[C@@H](CCCCN)C(=O)N[C@H]1CSSC[C@@H]2NC(=O)[C@H](CCCCN)NC(=O)[C@H](C)NC(=O)CNC(=O)[C@H](C)NC(=O)[C@H](CO)NC(=O)[C@H](CCC(N)=O)NC(=O)CNC(=O)[C@H](Cc3ccccc3)NC(=O)[C@H](CCC(N)=O)NC(=O)[C@H](C)NC(=O)[C@H](CCCCN)NC(=O)[C@@H]3CSSC[C@@H](C(=O)N[C@@H](Cc4ccc(O)cc4)C(=O)N4CCC[C@H]4C(=O)N[C@@H](Cc4c[nH]cn4)C(=O)O)NC(=O)[C@H](CCCCN)NC(=O)[C@H](CSSC[C@H](NC(=O)[C@H](CCC(N)=O)NC(=O)[C@H](CCCCN)NC(=O)[C@@H]4CCCN4C(=O)[C@H](CO)NC(=O)[C@H]([C@@H](C)O)NC1=O)C(=O)N[C@@H](CC(C)C)C(=O)N1CCC[C@H]1C(=O)N1CCC[C@H]1C(=O)N3)NC(=O)[C@H](CCCCN)NC(=O)CNC(=O)[C@H](CC(N)=O)NC(=O)[C@H](CCSC)NC2=O)C(C)C)[C@@H](C)CC [MgTX] (H-TIINVKCTSPKQCLPPCKAQFGQSAGAKCMNGKCKCYPH-OH; disulfide 7-29, 13-34, 17-36 (inferred); N-terminus and C-terminus assumed) | 10.10 | 10.10 | – | – | – | – | – | – | – | – | – | – | – | –
O=c1ccc2c(OCCCCOc3ccccc3)c3ccoc3cc2o1 [PAP-1, 5-(4-Phenoxybutoxy)psoralen] | – | – | 3 | substantially reduced | blocked | prevented | has not exhibited long-term toxicity | blocked | inhibited | blocked | orally bioavailable | equal or slightly exceed plasma-concentrations | 6.7 | did not impair

— patent US20140171455A1, “Reduction of Microglia-Mediated Neurotoxicity by Kv1.3 Inhibition” (The Regents of the University of California, priority 2011, published 2014)
